Data from PubChem BioAssay (NCI).
Values joined by “and” are separate entries in the source; they are usually repeats but may differ in a detail not shown here. Identical values can stand only once.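 Growth conditions: 96-well plates. Treatment: test compound, 48 hours, 5 concentrations. Analysis: linear interpolation between bracketing concentrations; unreached endpoints set to highest concentration. GI50: concentration for 50% inhibition of growth. TGI marks complete inhibition of growth.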

Assays:
Experiment in all cases: NCI-60 cell line screen, 48 h
EKVX NSCLC = system: EKVX NSCLC
SW-620 colon = system: SW-620 colon
U251 CNS = system: U251 CNS
K-562 leukemia = system: K-562 leukemia
NCI-H522 lung = system: NCI-H522 lung
HCT-116 colon = system: HCT-116 colon
RPMI-8226 leukemia = system: RPMI-8226 leukemia
SK-OV-3 ovarian = system: SK-OV-3 ovarian
BT-549 breast = system: BT-549 breast
PC-3 prostate = system: PC-3 prostate

Row | SMILES | TGI (EKVX NSCLC) [µM] | TGI (SW-620 colon) [µM] | TGI (U251 CNS) [µM] | TGI (K-562 leukemia) [µM] | TGI (NCI-H522 lung) [µM] | GI50 (HCT-116 colon) [µM] | TGI (HCT-116 colon) | TGI (RPMI-8226 leukemia) [µM] | TGI (SK-OV-3 ovarian) [µM] | TGI (BT-549 breast) [µM] | TGI (PC-3 prostate) [µM]
1 | Cc1ccc(N2C(=O)C3CSCN3C2=O)cc1 (configuration not stated) | > 100 | > 100 | > 100 | > 100 | > 100 | > 100 | > 100 µM and 11.7 µM | > 100 | > 100 |  | 
2 | c1ccc2c[n+](CCCC[n+]3ccc4ccccc4c3)ccc2c1 | > 100 | > 100 | > 100 | > 100 |  |  | > 100 µM | > 100 | > 100 | > 100 | > 100
3 | CCC1=C(C[C@H]2NCCc3cc(OC)c(OC)cc32)C[C@H]2c3cc(OC)c(OC)cc3CCN2C1 | 0.175 | 11.3 | 0.188 |  | 0.0688 |  | 0.0745 µM | 0.229 | 0.73 |  | 
4 | Cc1cn(C2CC(COCc3ccccc3)N(CCO[Si](C)(C)C(C)(C)C)O2)c(=O)[nH]c1=O (configuration not stated) |  | 35.6 | 62.5 | 19.3 | 31.4 |  | 43 µM | 34.1 | 31.4 |  | 18.1
5 | CCOC(=O)C1CCC(=O)N1C(=O)c1cccc(Cl)c1 (configuration not stated) | > 100 | > 100 | > 100 | > 100 | > 100 |  | > 100 µM | > 100 |  | > 100 | > 100
6 | CC/C=C/c1cc2c(cc1O)CCC1C2CC[C@@]2(C)C1CC[C@@H]2O (some centres not stated) | 14.3 | 14.2 | 15.7 | 7.66 | 14.1 |  | 14.3 µM | 6.46 | 16.7 |  | 11.6
7 | Cc1cc2nc3ccccc3n2c2ccccc12 | > 10 | > 10 | > 10 | > 10 | > 10 |  | > 10 µM | > 10 | > 10 |  | > 10
8 | Cc1nc2ccc(Br)cc2c(=O)n1-c1ccc(N)cc1 | > 100 | > 100 |  | > 100 |  |  | > 100 µM |  | > 100 | > 100 | > 100
9 | C/C(=N\Nc1nc2ccccc2[nH]1)c1ncccn1 | 25.8 | > 100 | > 100 | > 100 | > 64.3 |  | 1.74 µM |  | > 100 | > 100 | > 66
10 | O=c1[nH]nc(-c2ccccc2)c2[nH]c3c(c12)Cc1ccccc1-3 | > 100 | > 100 | > 100 | > 100 |  |  | > 100 µM | > 28.4 | > 100 | > 100 | > 100
11 | CC(C)[C@H](C)/C=C/[C@@H](C)C1CC[C@H]2[C@@]34C=C[C@]5(C[C@@H](O)CC[C@]5(C)[C@H]3CC[C@]12C)OO4 (some centres not stated) | > 100 | 78.8 | 58.5 |  |  |  | 42.8 µM |  | > 100 | 92.7 | 
12 | Oc1ccc(Cl)cc1-c1cc(-c2ccccc2)nc(=S)[nH]1 | > 100 | > 100 | 39.8 | > 100 | > 100 |  | > 100 µM | > 100 | > 100 |  | > 100
13 | COC(=O)C1C(=O)CC(C)(O)C(C(=O)OC)C1c1ccc(N(C)C)cc1 (configuration not stated) | > 100 | > 100 | > 100 | > 100 | > 100 |  | 21 µM |  |  | > 100 | > 100
14 | C=C(CN(CC)CC)C1(c2ccccc2)CC2(CCCC2)C(=O)O1 (configuration not stated) | > 100 | > 100 | > 100 | > 100 | > 100 |  | > 100 µM | > 100 | > 100 |  | > 100
15 | C=C(Br)C[N+]12CN3CN(CN(C3)C1)C2 | > 100 | > 100 | > 100 | > 100 | > 100 |  | > 100 µM | > 100 | > 100 |  | > 100
16 | Cc1nc2ccc(Cl)cc2c2c1CCO2 | > 100 | > 100 | > 100 | > 100 | > 100 |  | > 100 µM | > 100 |  | > 100 | > 100
17 | O=c1[nH]n(CCc2ccccc2CCl)c2ccc([N+](=O)[O-])cc12 | 36.1 | > 100 | > 100 | > 100 | > 100 |  | > 100 µM | > 100 |  | > 100 | > 100
18 | C/C(=C\Cc1ccc(F)cc1)CCCCCC/C(C)=C/Cc1ccc(F)cc1 | 37.2 | 48.6 | 37.8 | 28.5 | 21 |  | 33 µM |  | 68.6 | 79 | 33.3
19 | [N-]=[N+]=Nc1nc2ccccc2c(N=[N+]=[N-])c1Cl |  | > 100 | > 100 | > 100 |  |  | > 100 µM | > 100 | > 100 | 89.6 | > 100
20 | Cn1c2ccccc2n2c3ncccc3c(=O)cc12 | > 100 | > 100 | > 100 | > 100 | > 100 |  | 85.9 µM | > 100 | > 100 | > 100 | 
21 | COC(=O)[C@@H](NS(=O)(=O)CC12CCC(CC1)C2(C)C)C(C)(C)C | > 100 | > 100 | > 100 | > 100 | > 100 |  | > 100 µM |  | > 100 | > 100 | 
22 | C=CC(C)(C)/C=C/c1ccc(O)cc1 | > 100 | > 100 | > 100 |  | > 100 |  | > 100 µM | 70.1 | > 100 | > 100 | 89.4
23 | Nc1ccc2c(=O)cc(-c3ccc(Br)s3)[nH]c2n1 | > 100 | > 100 | > 74.4 | > 100 | > 23.1 |  | > 100 µM | > 100 | > 53.1 |  | > 100
24 | O=Nc1c(-c2c(O)[nH]c3ccc(I)cc23)[nH]c2ccccc12 | > 69.7 |  | > 40.9 |  | > 26.1 |  |  | 4.67 | > 35 | > 59.3 | > 27.9
25 | CC(=O)CC(=O)N1CCSC1=S | > 10 | > 10 | > 10 | > 10 |  |  | > 10 µM | > 10 | > 10 | > 10 | > 10
